According to ChEMBL document CHEMBL1132533, “Synthesis and evaluation of hydroxyproline-derived isoprenyltransferase inhibitors” (Bioorg Med Chem Lett, 1999):

Columns and labels:
[1] = molecular target: Protein farnesyltransferase (Bos taurus, UniProt P29702+P49355); assay: Inhibitory concentration was evaluated against Farnesyltransferase in the farnesylation of H-ras protein; format: protein-complex assay
[2] = molecular target: Geranylgeranyl transferase type I (Bos taurus, UniProt P29702+Q5EAD5); assay: In vitro inhibitory activity against Geranylgeranyl transferase in the geranylgeranylation of H-ras-CAIL protein; format: protein-complex assay
[3] = molecular target: Protein farnesyltransferase (Mus musculus, UniProt Q61239+Q8K2I1); assay: Inhibitory concentration against Farnesyltransferase for Farnesylation of H-ras protein InNIH 3T3 cells transformed with activated H-ras; format: cell-based, NIH3T3
[4] = In vitro inhibitory activity against Geranylgeranyl transferase in the geranylgeranylation of Rap1A protein protein in NIH 3T3 cells transformed with activated H-ras; format: cell-based, Mus musculus; conditions: nih3t3

Row | IC50 [1] | IC50 [2] | IC50 [3] | IC50 [4] | Compound
1 | – | – | > 50000 nM | > 50000 nM | COC(=O)[C@H](CCSC)NC(=O)[C@@H]1C[C@H](Oc2ccc(C(F)(F)F)cc2)CN1C/C=C/[C@@H](N)CS
2 | – | – | 350 nM | > 50000 nM | COC(=O)[C@H](CCSC)NC(=O)[C@@H]1C[C@H](Oc2ccccc2)CN1CCCC[C@@H](N)CS
3 | – | – | 2000 nM | > 50000 nM | COC(=O)[C@H](CCSC)NC(=O)[C@@H]1C[C@H](Oc2ccccc2)CN1C(=O)CCC[C@@H](N)CS
4 | – | – | 40 nM | > 25000 nM | COC(=O)[C@H](CCSC)NC(=O)[C@@H]1C[C@H](Oc2ccccc2)CN1C[C@H](/C=C/[C@@H](N)CS)C(C)C
5 | – | – | > 50000 nM | > 50000 nM | COC(=O)[C@H](CCSC)NC(=O)[C@@H]1C[C@H](Oc2ccc(OC)c(OC)c2)CN1C/C=C/[C@@H](N)CS
6 | – | – | 3200 nM | 3100 nM | CCCCc1ccc(O[C@H]2C[C@@H](C(=O)N[C@@H](CCSC)C(=O)OC)N(C/C=C/[C@@H](N)CS)C2)cc1
7 | – | – | 840 nM | > 50000 nM | COC(=O)[C@H](CCSC)NC(=O)[C@@H]1C[C@H](Oc2ccccc2)CN1C(=O)[C@H](/C=C/[C@@H](N)CS)C(C)C
8 | 20 nM | 570 nM | – | – | CSCC[C@H](NC(=O)[C@@H]1C[C@H](Oc2ccccc2)CN1CC/C=C/[C@@H](N)CS)C(=O)O
9 | 26 nM | 1 nM | 370 nM | > 100000 nM | CSCC[C@H](NC(=O)[C@H](/C=C\[C@@H](/C=C/[C@@H](N)CS)C(C)C)Cc1ccccc1)C(=O)O
10 | 47 nM | 89 nM | – | – | CSCC[C@H](NC(=O)[C@@H]1C[C@H](Oc2cccc3c2CCCC3)CN1C/C=C/[C@@H](N)CS)C(=O)O
11 | 82 nM | 210 nM | – | – | CSCC[C@H](NC(=O)[C@@H]1C[C@H](Oc2ccc(C(C)C)cc2)CN1C/C=C/[C@@H](N)CS)C(=O)O
12 | 17 nM | 150 nM | – | – | CSCC[C@H](NC(=O)[C@@H]1C[C@H](Oc2ccccc2)CN1C[C@H](/C=C/[C@@H](N)CS)C(C)C)C(=O)O
13 | 57 nM | 53 nM | – | – | CSCCC(NC(=O)[C@@H]1C[C@H](Oc2ccccc2)CN1C/C=C/[C@@H](N)CS)C(=O)O (single isomer, unassigned)

Second part, the molecule before the results:

Row | Compound | IC50 [1] | IC50 [2] | IC50 [3] | IC50 [4]
14 | CSCC[C@@H](NC(=O)[C@H]1C[C@H](Oc2ccccc2)CN1C/C=C/[C@@H](N)CS)C(=O)O | 3300 nM | 11000 nM | – | –
15 | COC(=O)[C@@H](CCSC)NC(=O)[C@@H]1C[C@H](Oc2ccccc2)CN1C/C=C/[C@@H](N)CS | – | – | 5300 nM | 21900 nM
16 | COC(=O)[C@H](CCSC)NC(=O)[C@@H]1C[C@H](Oc2ccc(C(C)C)cc2)CN1C/C=C/[C@@H](N)CS | – | – | 3000 nM | 390 nM
17 | CSCC[C@H](NC(=O)[C@@H]1C[C@H](Oc2ccc(C(F)(F)F)cc2)CN1C/C=C/[C@@H](N)CS)C(=O)O | 110 nM | 110 nM | – | –
18 | CSCC[C@H](NC(=O)[C@@H]1C[C@H](Oc2ccccc2)CN1CCCC[C@@H](N)CS)C(=O)O | 20 nM | 3300 nM | – | –
19 | CSCC[C@H](NC(=O)[C@@H]1C[C@H](Oc2ccccc2)CN1C(=O)[C@H](/C=C/[C@@H](N)CS)C(C)C)C(=O)O | 18 nM | 11 nM | – | –
20 | CCCc1ccccc1O[C@H]1C[C@@H](C(=O)N[C@@H](CCSC)C(=O)O)N(C/C=C/[C@@H](N)CS)C1 | 210 nM | 170 nM | – | –
21 | CCCCc1ccc(O[C@H]2C[C@@H](C(=O)N[C@@H](CCSC)C(=O)O)N(C/C=C/[C@@H](N)CS)C2)cc1 | 87 nM | 180 nM | – | –
22 | CCCc1ccccc1O[C@H]1C[C@H](C(=O)N[C@H](CCSC)C(=O)OC)N(C/C=C/[C@@H](N)CS)C1 | – | – | > 10000 nM | > 10000 nM
23 | COC(=O)[C@H](CCSC)NC(=O)[C@@H]1C[C@H](Oc2cccc3ccccc23)CN1C/C=C/C(N)CS (some centres not stated) | – | – | 22500 nM | > 50000 nM
24 | COC(=O)[C@H](CCSC)NC(=O)[C@@H]1C[C@H](Oc2cccc3c2CCCC3)CN1C/C=C/C(N)CS (some centres not stated) | – | – | > 10000 nM | 3100 nM
25 | CSCC[C@H](NC(=O)[C@@H]1C[C@H](Oc2cccc3ccccc23)CN1C/C=C/C(N)CS)C(=O)O (some centres not stated) | 100 nM | 200 nM | – | –
26 | COC(=O)[C@H](CCSC)NC(=O)[C@H]1C[C@H](Oc2ccccc2)CN1C/C=C/[C@@H](N)CS | – | – | > 50000 nM | –
27 | COC(=O)[C@H](CCSC)NC(=O)[C@@H]1C[C@@H](Oc2ccccc2)CN1C/C=C/[C@@H](N)CS | – | – | > 50000 nM | > 50000 nM
28 | CSCC[C@H](NC(=O)[C@@H]1C[C@H](Oc2ccc(-c3ccccc3)cc2)CN1C/C=C/[C@@H](N)CS)C(=O)O | 35 nM | 250 nM | – | –
29 | COC(=O)[C@H](CCSC)NC(=O)[C@@H]1C[C@H](Oc2ccccc2)CN1CC/C=C/[C@@H](N)CS | – | – | 490 nM | > 50000 nM
30 | CSCC[C@H](NC(=O)[C@@H]1C[C@@H](Oc2ccccc2)CN1C/C=C/[C@@H](N)CS)C(=O)O | 4000 nM | 8000 nM | – | –
31 | CSCC[C@H](NC(=O)[C@@H]1C[C@H](Oc2ccccc2)CN1C(=O)CCC[C@@H](N)CS)C(=O)O | 2 nM | 100 nM | – | –
32 | COC(=O)[C@H](CCSC)NC(=O)[C@@H]1C[C@H](Oc2ccc(-c3ccccc3)cc2)CN1C/C=C/[C@@H](N)CS | – | – | 3300 nM | 3200 nM
33 | COc1ccc(O[C@H]2CC(C(=O)NC(CCSC)C(=O)O)N(C/C=C/[C@@H](N)CS)C2)cc1OC (single isomer, unassigned) | 450 nM | 67000 nM | – | –
